Measurements reported in US20240174690A1, “ANNULATED 2-AMINO-3-CYANO THIOPHENES AND DERIVATIVES FOR THE TREATMENT OF CANCER” (BOEHRINGER INGELHEIM INTERNATIONAL GMBH, priority 2021, published 2024).

Legend:
CYP3A4 = CYP3A4 (Homo sapiens (Human), UniProt P08684); experiment: Mechanism based inhibition of CYP3A4 assay (MBI 3A4); assay type: in vitro ADME; details: hydroxy-midazolam formation after 30 min vs 0 min preincubation, 25 uM, human liver microsomes
Summary of the method: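 Human CYP3A4 activity after 30 min vs 0 min preincubation with test compound; incubate then diluted 1:10 and midazolam added for a 15 min main incubation. Quenched with acetonitrile; hydroxy-midazolam quantified by LC/MS-MS and expressed as % of the 0 min preincubation formation.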

KRAS (G13D)::SOS1 = KRAS (G13D)::SOS1 (Homo sapiens (Human), UniProt P01116, C118S/G13D); experiment: KRAS::SOS1 AlphaScreen binding assay, KRAS G13D
Description: (§1) This assay can be used to examine the potency with which compounds according to the invention binding to (mutated) KRAS inhibit the protein-protein interaction between SOS1 and (mutated) KRAS e.g., KRAS WT, KRAS G12C, KRAS G12D, KRAS G12V, KRAS G13D. […] Low IC50 values in this assay setting are indicative of strong inhibition of protein-protein interaction between SOS1 and KRAS:
(§2) These assays measure the inhibitory effect of compounds on KRAS mutant protein-protein interactions using the Alpha Screen technology by Perkin Elmer.
(§3) The following (mutant) enzyme forms of KRAS and interacting proteins are used in these assays at the given concentrations: • KRAS (G12D) 1-169, N-terminal 6His-tag, C-terminal avi-tag (Xtal BioStructures, Inc.); final assay concentration 10 nM and SOS1 564-1049, N-terminal 229 GST-tag, TEV cleavage site (Viva Biotech Ltd); final assay concentration 5 nM; • KRAS (G12C) 1-169, N-terminal 6His-tag for purification, cleaved off, C-terminal avi-tag, biotinylated, mutations: C51S, C80L, C118S (in house); final assay concentration 7.5 nM and SOS1 564-1049, N-terminal 229 GST-tag, TEV cleavage site (Viva Biotech Ltd); final assay concentration 5 nM; • KRAS (G12V) 1-169, N-terminal 6His-tag for purification, cleaved off, C-terminal avi-tag, biotinylated, TEV cleavage site, mutation: C118S, GDP loaded (in house); final assay concentration 10 nM and SOS1 564-1049, N-terminal 229 GST-tag, TEV cleavage site (Viva Biotech Ltd); final assay concentration 10 nM; • KRAS (G13D) 1-169, N-terminal 6His-tag for purification, cleaved off, C-terminal avi-tag, biotinylated, TEV cleavage site, mutation: C118S, GDP loaded (in house); final assay concentration 10 nM and SOS1 564-1049, N-terminal 229 GST-tag, TEV cleavage site (Viva Biotech Ltd); final assay concentration 10 nM; • KRAS (WT) 1-169, N-terminal 6His-tag for purification, cleaved off, C-terminal avi-tag, biotinylated, TEV cleavage site, mutation: C118S, GDP loaded (in house); final assay concentration 10 nM and SOS1 564-1049, N-terminal 229 GST-tag, TEV cleavage site (Viva Biotech Ltd); final assay concentration 10 nM.
(§4) Test compounds dissolved in DMSO are dispensed onto assay plates (Proxiplate 384 PLUS, white, PerkinElmer; 6008289) using an Access Labcyte Workstation with the Labcyte Echo 55×. For the chosen highest assay concentration of 100 μM, 150 nL of compound solution are transferred from a 10 mM DMSO compound stock solution. A series of eleven fivefold dilutions per compound are transferred to the assay plate, compound dilutions are tested in duplicates. DMSO are added as backfill to a total volume of 150 nL.
(§5) The assays run on a fully automated robotic system in a darkened room below 100 Lux. To 150 nl of compound dilution 10 μl of a mix including KRAS mutant protein, SOS1 (final assay concentrations see above) and GDP nucleotide (Sigma G7127; final assay concentration 10 μM) in assay buffer (1×PBS, 0.1% BSA, 0.05% Tween 20) are added into columns 1-24.
(§6) After 30 minutes incubation time 5 μl of Alpha Screen bead mix in assay buffer are added into columns 1-23. Bead mix consists of AlphaLISA Glutathione Acceptor Beads (PerkinElmer, Cat No AL109) and AlphaScreen Streptavidin Donor Beads (PerkinElmer Cat No 6760002) in assay buffer at a final assay concentration of 10 μg/ml each.
(§7) Plates are kept at room temperature in a darkened incubator. After an additional 60 minutes incubation time the signal is measured in a PerkinElmer Envision HTS Multilabel Reader using the AlphaScreen specs from PerkinElmer.
(§8) Each plate contains up to 16 wells of a negative control depending on the dilution procedure (platewise or serial) (DMSO instead of test compound; with KRAS mutant::SOS1 GDP mix and bead mix; column 23) and 16 wells of a positive control (DMSO instead of test compound; with KRAS mutant::SOS1 GDP mix w/o bead mix; column 24).
(§9) As internal control known inhibitors of KRAS mutant::SOS1 interaction can be measured on each compound plate. […]

KRAS (G12V)::SOS1 = KRAS (G12V)::SOS1 (Homo sapiens (Human), UniProt P01116, C118S/G12V); experiment: KRAS::SOS1 AlphaScreen binding assay, KRAS G12V
Description: as §1, §2, §3, §4, §5, §6, §7, §8, §9

Chain of CYP3A4 (P08684 whole entry): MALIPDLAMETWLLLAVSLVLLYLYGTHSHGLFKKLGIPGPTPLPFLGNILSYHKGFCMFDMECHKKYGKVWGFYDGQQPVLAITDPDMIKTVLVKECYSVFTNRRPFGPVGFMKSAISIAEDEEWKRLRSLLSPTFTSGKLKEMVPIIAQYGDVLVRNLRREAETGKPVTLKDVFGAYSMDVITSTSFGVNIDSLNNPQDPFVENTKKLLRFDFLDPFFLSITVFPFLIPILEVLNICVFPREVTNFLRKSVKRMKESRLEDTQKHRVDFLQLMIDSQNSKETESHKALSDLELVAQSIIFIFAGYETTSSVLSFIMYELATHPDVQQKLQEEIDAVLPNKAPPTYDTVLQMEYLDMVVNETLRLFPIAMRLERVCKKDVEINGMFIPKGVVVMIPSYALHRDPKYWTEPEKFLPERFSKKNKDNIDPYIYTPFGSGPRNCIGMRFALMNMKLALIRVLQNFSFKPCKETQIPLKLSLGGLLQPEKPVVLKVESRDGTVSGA
Chain of KRAS (G12V)::SOS1 (P01116 other isoform, or with tags, fused parts or gaps G12V/C118S): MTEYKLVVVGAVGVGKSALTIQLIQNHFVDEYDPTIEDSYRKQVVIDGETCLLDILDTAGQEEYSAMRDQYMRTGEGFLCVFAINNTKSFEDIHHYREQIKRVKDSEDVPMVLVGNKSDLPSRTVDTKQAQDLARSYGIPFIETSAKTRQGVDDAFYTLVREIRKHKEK
Chain of KRAS (G13D)::SOS1 (P01116 other isoform, or with tags, fused parts or gaps G13D/C118S): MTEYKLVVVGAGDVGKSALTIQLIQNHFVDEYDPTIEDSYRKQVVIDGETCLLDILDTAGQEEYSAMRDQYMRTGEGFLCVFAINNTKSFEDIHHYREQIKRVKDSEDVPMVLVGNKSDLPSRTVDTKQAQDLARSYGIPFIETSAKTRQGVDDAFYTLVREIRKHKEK

**Q.** For `CC(C)N1CCCN(c2cc(-c3ccn(C)n3)nc(-c3noc4c3CCC[C@@]43CCCc4sc(N)c(C#N)c43)n2)[C@@H](C)C1` [II-170], which “MBI 3A4” value (CYP3A4) is on record?
**A.** Its value is 70%.

**Q.** What does the source list for `C[C@H](Oc1cc(-n2ccc(C(=O)N[C@H]3CCOC3)n2)nc(-c2noc3c2CCC[C@@]32CCCc3sc(N)c(C#N)c32)n1)[C@@H]1CCCN1C` [II-193]?
**A.** IC50 (KRAS (G13D)::SOS1): 9 nM; IC50 (KRAS (G12V)::SOS1): 2 nM; MBI 3A4 (CYP3A4): 61%

**Q.** Which results are given for `C[C@H](Oc1cc(-n2ccc(C(=O)N[C@@H]3CCOC3)n2)nc(-c2noc3c2CCC[C@@]32CCCc3sc(N)c(C#N)c32)n1)[C@@H]1CCCN1C` [II-192]?
**A.** IC50 (KRAS (G13D)::SOS1): 7 nM; IC50 (KRAS (G12V)::SOS1): 1 nM; MBI 3A4 (CYP3A4): 49%

**Q.** `CO[C@H]1CCN(C)[C@@H]1[C@H](C)Oc1cc(N2CCNC3(CC3)C2)nc(-c2noc3c2CCC[C@@]32CCCc3sc(N)c(C#N)c32)n1` [II-184] was tested. Which IC50 (KRAS (G12V)::SOS1) did it give?
**A.** Its IC50 is 2 nM.

**Q.** How did the “MBI 3A4” value (CYP3A4) turn out when `C[C@H](Oc1cc(-c2ccn(C[C@H]3CCOC3)n2)nc(-c2noc3c2CCC[C@@]32CCCc3sc(N)c(C#N)c32)n1)[C@@H]1CCCN1C` [II-129] was run?
**A.** Its value is 74%.

**Q.** For `C[C@H](Oc1cc(-n2cnc(C(=O)N(C)C)c2)nc(-c2noc3c2CCC[C@@]32CCCc3sc(N)c(C#N)c32)n1)[C@@H]1CCCN1C` [II-126], which “MBI 3A4” value (CYP3A4) is on record?
**A.** The value was 56%.

**Q.** `C[C@H](Oc1cc(N2CCNC3(COC3)C2)nc(-c2noc3c2CCC[C@@]32CCCc3sc(N)c(C#N)c32)n1)[C@@H]1C[C@@H](F)CN1C` [II-150] was tested. Which “MBI 3A4” value (CYP3A4) did it give?
**A.** Its value is 49%.

**Q.** How did the “MBI 3A4” value (CYP3A4) turn out when `C[C@H](Oc1cc(-c2ccn(C)n2)nc(-c2noc3c2CCC[C@@]32CCCc3sc(N)c(C#N)c32)n1)[C@@H]1C[C@H](F)CN1C` [II-144] was run?
**A.** The value was 60%.

**Q.** For `CC(C)N1CCCN(c2cc(-n3ccnc3)nc(-c3noc4c3CCC[C@@]43CCCc4sc(N)c(C#N)c43)n2)[C@@H](C)C1` [II-169], which “MBI 3A4” value (CYP3A4) is on record?
**A.** The value was 66%.

**Q.** With `CO[C@@H]1C[C@@H]([C@H](C)Oc2cc(N3CCN(C)C4(COC4)C3)nc(-c3noc4c3CCC[C@@]43CCCc4sc(N)c(C#N)c43)n2)N(C)C1` [II-153] as the compound, how does the “MBI 3A4” value (CYP3A4) read?
**A.** Its value is 49%.

**Q.** With `C[C@H](Oc1cc(N2C[C@H](C)N(C)[C@@H](C)C2)nc(-c2noc3c2CCC[C@@]32CCCc3sc(N)c(C#N)c32)n1)[C@@H]1CCCN1C` [II-173] as the compound, how does the “MBI 3A4” value (CYP3A4) read?
**A.** Its value is 82%.

**Q.** With `C[C@H](O)Cn1ncc(-c2cc(O[C@@H](C)[C@@H]3CCCN3C)nc(-c3noc4c3CCC[C@@]43CCCc4sc(N)c(C#N)c43)n2)n1` [II-134] as the compound, how does the “MBI 3A4” value (CYP3A4) read?
**A.** Its value is 76%.

**Q.** For `C[C@H](Oc1cc(-n2ccc(-c3cn(C4CCOCC4)nn3)n2)nc(-c2noc3c2CCC[C@@]32CCCc3sc(N)c(C#N)c32)n1)[C@@H]1CCCN1C` [II-210], which IC50 (KRAS (G12V)::SOS1) is on record?
**A.** The IC50 was 2 nM.

**Q.** For `C[C@H](Oc1cc(-c2ccn([C@H]3CCOC3)n2)nc(-c2noc3c2CCC[C@@]32CCCc3sc(N)c(C#N)c32)n1)[C@@H]1CCCN1C` [II-127], which “MBI 3A4” value (CYP3A4) is on record?
**A.** The value was 74%.

**Q.** How did the “MBI 3A4” value (CYP3A4) turn out when `C[C@H](Oc1cc(-c2ccn(Cc3ncco3)n2)nc(-c2noc3c2CCC[C@@]32CCCc3sc(N)c(C#N)c32)n1)[C@@H]1CCCN1C` [II-128] was run?
**A.** The value was 60%.

**Q.** How did the “MBI 3A4” value (CYP3A4) turn out when `C[C@H](Oc1cc(N2CCN(C)C3(CC3)C2)nc(-c2noc3c2CCC[C@@]32CCCc3sc(N)c(C#N)c32)n1)[C@@H]1C[C@@H](F)CN1C` [II-149] was run?
**A.** Its value is 42%.
